Measured values reported in patent US20250084040A1, “SUBSTITUTED HETEROCYCLES AS c-MYC TARGETING AGENTS” (Northwestern University, priority 2018, published 2025).

Assay: In vitro metabolism, mouse liver microsomes
Type: in vitro ADME
Details: % remaining of compound after 60 min treatment with mouse liver microsomes
Description: In vitro metabolism of NUCC-176242 and NUCC-176248 were tested using mouse liver microsomes and a mouse S9 fraction. (See FIG. 9).

COc1cccc(-c2c(-c3ccc(OCc4ccc(Cl)cc4)cc3O)n[nH]c2C(F)(F)F)c1 [NUCC-0198309]
MLM % at 60 min: 74%

Cn1nc(C(F)(F)F)cc1-c1ccc(OCc2ccc(Cl)cc2)c(-c2cccc(C#N)c2)c1O [NUCC-0198399]
MLM % at 60 min: 80.3%

CCc1c(OCc2ccc(Cl)cc2)ccc(-c2cc(C(F)(F)F)n[nH]2)c1O [NUCC-0200739]
MLM % at 60 min: 46.4%

CCOC(=O)c1cc(-c2ccc(OCc3ccc(Cl)cc3)c(-c3cc(C(F)(F)F)cc(C(F)(F)F)c3)c2O)n[nH]1 [NUCC-0200972]
MLM % at 60 min: 60.3%

Cn1nc(C(F)(F)F)cc1-c1ccc(OCc2ccc(Cl)cc2)cc1C=O [NUCC-0200976]
MLM % at 60 min: 21.8%
